Measured values published in the Deep4Chem optical property database.
Blank lines part the entries; values can stand above or below the molecule they belong to.

Experiment: photoluminescence quantum yield (fraction); solvent given as SMILES

Compound: [C-]#[N+]c1ccc(-c2ccc(N(C)C)cc2)cc1
- photoluminescence quantum yield (in C1CCCCC1): 0.82
- photoluminescence quantum yield (in C1CCOC1): 0.85
- photoluminescence quantum yield (in C1COCCO1): 0.74
- photoluminescence quantum yield (in CC#N): 0.89
- photoluminescence quantum yield (in CC(C)=O): 0.54
- photoluminescence quantum yield (in CCCCCC): 0.66
- photoluminescence quantum yield (in CCOC(C)=O): 0.54
- photoluminescence quantum yield (in CN(C)C=O): 0.86
- photoluminescence quantum yield (in CO): 0.15
- photoluminescence quantum yield (in CS(C)=O): 0.76
- photoluminescence quantum yield (in Cc1ccccc1): 0.62
- photoluminescence quantum yield (in ClC(Cl)Cl): 0.19
- photoluminescence quantum yield (in ClCCl): 0.8
- photoluminescence quantum yield (in O): 0.016
- photoluminescence quantum yield (in c1ccncc1): 0.63

Compound: Oc1ccc2ccccc2c1
- photoluminescence quantum yield (in C1CCCCC1): 0.51

Compound: C[Si](C)(c1cccc2ccccc12)c1c2ccccc2cc2ccccc12
- photoluminescence quantum yield (in C1CCCCC1): 0.72
- photoluminescence quantum yield (in CC#N): 0.62

Compound: c1ccc(-c2nn(-c3ccccc3)c3nc4ccc(N(c5ccccc5)c5ccccc5)cc4cc23)cc1
- photoluminescence quantum yield (in C1CCCCC1): 0.76
- photoluminescence quantum yield (in C1CCOC1): 0.7
- photoluminescence quantum yield (in CC#N): 0.46
- photoluminescence quantum yield (in CC(C)=O): 0.59
- photoluminescence quantum yield (in CCCCCl): 0.7
- photoluminescence quantum yield (in CCCCOCCCC): 0.76
- photoluminescence quantum yield (in CN(C)C=O): 0.5

Compound: CC1=CC(C)=[N+]2C1=C(c1ccc(C(=O)OC3C[C@@H]4CC[C@]3(C)C4(C)C)cc1)c1c(C)cc(C)n1[B-]2(F)F (stereo partly drawn)
- photoluminescence quantum yield (in Cc1ccccc1): 0.37

Compound: C(=C\c1ccc(/C=C/c2ccc(N(c3ccccc3)c3ccccc3)cc2)c2nsnc12)/c1ccc(N(c2ccccc2)c2ccccc2)cc1
- photoluminescence quantum yield (in C1CCOC1): 0.228
- photoluminescence quantum yield (in CCOC(C)=O): 0.275
- photoluminescence quantum yield (in CN(C)C=O): 0.061
- photoluminescence quantum yield (in Cc1ccccc1): 0.345
- photoluminescence quantum yield (in ClC(Cl)Cl): 0.148
- photoluminescence quantum yield (in ClCCl): 0.137

Compound: c1cc2ccc3cc4cccc5ccc6cc(c1)c2c3c6c54
- photoluminescence quantum yield (in C1CCCCC1): 0.31
- photoluminescence quantum yield (in CC#N): 0.32
- photoluminescence quantum yield (in CO): 0.38
- photoluminescence quantum yield (in Cc1ccccc1): 0.47
- photoluminescence quantum yield (in ClCCl): 0.24

Compound: COc1ccc(C2=CC3=C(c4c(C)cc(C)cc4C)c4cc(-c5ccc(OC)cc5)c(-c5ccc(OC)cc5)n4[B-](F)(F)[N+]3=C2c2ccc(OC)cc2)cc1
- photoluminescence quantum yield (in C1CCCCC1): 0.64
- photoluminescence quantum yield (in C1CCOC1): 0.42
- photoluminescence quantum yield (in CC#N): 0.24
- photoluminescence quantum yield (in Cc1ccccc1): 0.51
- photoluminescence quantum yield (in ClCCl): 0.42

Compound: COc1cc(C2=CC3=C(c4c(C)cc(C)cc4C)c4cc(-c5cc(OC)c(OC)c(OC)c5)c(-c5cc(OC)c(OC)c(OC)c5)n4[B-](F)(F)[N+]3=C2c2cc(OC)c(OC)c(OC)c2)cc(OC)c1OC
- photoluminescence quantum yield (in C1CCCCC1): 0.33
- photoluminescence quantum yield (in C1CCOC1): 0.08
- photoluminescence quantum yield (in CC#N): 0.02
- photoluminescence quantum yield (in Cc1ccccc1): 0.16
- photoluminescence quantum yield (in ClCCl): 0.05

Compound: F[B-]1(F)n2c(cc(-c3ccccc3)c2-c2ccccc2)C(c2ccccc2)=C2C=C(c3ccccc3)C(c3ccccc3)=[N+]21
- photoluminescence quantum yield (in C1CCOC1): 0.33
- photoluminescence quantum yield (in CC#N): 0.34
- photoluminescence quantum yield (in Cc1ccccc1): 0.64
- photoluminescence quantum yield (in ClCCl): 0.4

Compound: Cc1c2c(c(C)c3ccccc13)-c1c-2ccc2nc3ccccc3nc12
- photoluminescence quantum yield (in ClC(Cl)Cl): 0.02

Compound: COc1cccc(-c2c3ccccc3c3n2[B-](F)(F)[N+]2=Cc4c5ccccc5c(-c5cccc(OC)c5)n4[B-](F)(F)[N+]2=C3)c1
- photoluminescence quantum yield (in CC#N): 0.24
- photoluminescence quantum yield (in CCCCCC): 0.34
- photoluminescence quantum yield (in CN(C)C=O): 0.27
- photoluminescence quantum yield (in Cc1ccccc1): 0.34
- photoluminescence quantum yield (in ClCCl): 0.36

Compound: COc1nc(Nc2cc3ccc4cccc5ccc(c2)c3c45)nc(OC)n1
- photoluminescence quantum yield (in CC#N): 0.13
- photoluminescence quantum yield (in CCCCOCCCC): 0.15
- photoluminescence quantum yield (in CO): 0.13

Compound: Oc1ccc2ccccc2c1/C=N/c1ccccc1/N=C/c1c(O)ccc2ccccc12
- photoluminescence quantum yield (in CC#N): 0.3

Compound: CC[N+](CC)=c1ccc2c(-c3ccccc3C(=O)O)c3oc4cc(N)ccc4c3oc-2c1
- photoluminescence quantum yield (in CCO): 0.778
- photoluminescence quantum yield (in ClCCl): 0.726
- photoluminescence quantum yield (in O): 0.126

Compound: CC(C)Oc1ccc(C#Cc2ccc3ccc(=O)oc3c2)cc1
- photoluminescence quantum yield (in CC#N): 0.034

Compound: c1ccc(-c2nn(-c3ccccc3)c3nc4ccc(N(c5ccccc5)c5cccc6ccccc56)cc4cc23)cc1
- photoluminescence quantum yield (in C1CCCCC1): 0.57
- photoluminescence quantum yield (in C1CCOC1): 0.57
- photoluminescence quantum yield (in CC#N): 0.41
- photoluminescence quantum yield (in CC(C)=O): 0.53
- photoluminescence quantum yield (in CCCCCl): 0.56
- photoluminescence quantum yield (in CCCCOCCCC): 0.56
- photoluminescence quantum yield (in CN(C)C=O): 0.47

Compound: COc1ccc(C2=CC(c3ccc4ccccc4c3)=[O+][B-](C(C)=O)(C(C)=O)O2)cc1
- photoluminescence quantum yield (in CC#N): 0.6
- photoluminescence quantum yield (in ClC(Cl)(Cl)Cl): 0.8

Compound: CCC1=C(C)c2cc3c(OC)cc(OC)cc3c(=O)n2C1=O
- photoluminescence quantum yield (in CC#N): 0.54
- photoluminescence quantum yield (in CO): 0.44
- photoluminescence quantum yield (in CS(C)=O): 0.6
- photoluminescence quantum yield (in ClC(Cl)Cl): 0.6

Compound: COC(=O)CNC(=O)c1nc2c(N(C)C)nc(N(C)C)nc2n1Cc1ccccc1
- photoluminescence quantum yield (in C1COCCO1): 0.95
- photoluminescence quantum yield (in CC#N): 0.95
- photoluminescence quantum yield (in CO): 0.9
- photoluminescence quantum yield (in ClCCl): 0.91

Compound: CCCCCCCCC1(CCCCCCCC)c2cc(-c3ccc(C=C4C(=O)c5ccccc5C4=O)cc3)ccc2-c2ccc(-c3ccc(C=C4C(=O)c5ccccc5C4=O)cc3)cc21
- photoluminescence quantum yield (in C1CCOC1): 0.048
- photoluminescence quantum yield (in CC(C)=O): 0.116
- photoluminescence quantum yield (in CCCCCC): 0.007
- photoluminescence quantum yield (in CS(C)=O): 0.245
- photoluminescence quantum yield (in Cc1ccccc1): 0.011
- photoluminescence quantum yield (in ClC(Cl)Cl): 0.014

Compound: CC(C)[Si]1(C(C)C)c2cc(C=O)ccc2-c2ccc(N(C)C)cc21
- photoluminescence quantum yield (in C1CCCCC1): 0.08
- photoluminescence quantum yield (in CC#N): 0.81
- photoluminescence quantum yield (in CCO): 0.4
- photoluminescence quantum yield (in CCOCC): 0.79
- photoluminescence quantum yield (in CS(C)=O): 0.57
- photoluminescence quantum yield (in ClCCl): 0.71
- photoluminescence quantum yield (in c1ccccc1): 0.75

Compound: COc1ccccc1C1=[N+]2C(=Nc3c(-c4ccccc4)cc(-c4ccccc4OC)n3[B-]2(F)F)C(c2ccccc2)=C1
- photoluminescence quantum yield (in Cc1ccccc1): 0.07

Next, values leading:

- photoluminescence quantum yield (in ClCCl): 0.34
Compound: CCCCN(CCCC)c1ccc(C#Cc2cc(C#Cc3ccc(N(CCCC)CCCC)cc3)c(C#Cc3cc(C(F)(F)F)cc(C(F)(F)F)c3)cc2C#Cc2cc(C(F)(F)F)cc(C(F)(F)F)c2)cc1

- photoluminescence quantum yield (in C1CCOC1): 0.36
Compound: CCC1(CC)c2ccccc2-c2c1c1c(c3c2C(CC)(CC)c2cc(N(c4ccccc4)c4ccccc4)ccc2-3)C(CC)(CC)c2cc(N(c3ccccc3)c3ccccc3)ccc2-1

- photoluminescence quantum yield (in CC#N): 0.24
Compound: COc1ccc2cc(/C=C/c3ccc([N+](=O)[O-])cc3)c(=O)oc2c1

- photoluminescence quantum yield (in C1CCOC1): 0.55
- photoluminescence quantum yield (in CC#N): 0.49
- photoluminescence quantum yield (in CCO): 0.46
- photoluminescence quantum yield (in CO): 0.45
- photoluminescence quantum yield (in ClCCl): 0.53
Compound: O=C1C2=C(O[B-](F)(F)[n+]3c2ccc2ccccc23)c2ccc(N3CCOCC3)c3cccc1c23

- photoluminescence quantum yield (in CC#N): 0.35
Compound: COc1ccc(/C=C/c2nc3c4ccccc4c4ccccc4c3o2)cc1

- photoluminescence quantum yield (in O): 0.31
Compound: Cc1ccccc1C1=C2C=CC(=[N+](C)C)C=C2[Si](C)(C)c2cc(N(C)C)ccc21

- photoluminescence quantum yield (in ClC(Cl)Cl): 0.16
Compound: CCC(CC)n1c2ccccc2c2cc3c(cc21)c1ccccc1n3C(CC)CC

- photoluminescence quantum yield (in CCO): 0.23
Compound: C#Cc1ccc2ccc3oc(=O)cc(C)c3c2c1

- photoluminescence quantum yield (in ClCCl): 0.0207
Compound: COC(=O)c1[nH]c(-c2ccccc2)c2nnc3ccc(OC)cc3c12

- photoluminescence quantum yield (in ClCCl): 0.73
Compound: COc1ccc(-c2c3ccccc3c(C#Cc3ccccc3)c3cc4cc(C)sc4cc23)cc1

- photoluminescence quantum yield (in O): 0.2
Compound: COc1ccc2cc3cccc[n+]3cc2c1

- photoluminescence quantum yield (in O): 0.95
Compound: O=C([O-])c1ccccc1-c1c2ccc(=O)cc-2oc2cc([O-])ccc12

- photoluminescence quantum yield (in CN(C)C=O): 0.8
Compound: C(=C\c1ccc(-c2nnc(-c3ccccc3)o2)cc1)/c1ccc(-c2nnc(-c3ccccc3)o2)cc1
